Literature values in publication PMC9290462 (British Journal of Clinical Pharmacology, 2020).

Assays:
[1] = test system: patients with moderate‐to‐severe SLE

C=CC(=O)N1CCC(CNc2ncnc(N)c2-c2ccc(Oc3ccccc3)cc2)CC1 [Evobrutinib, evobrutinib]
alanine aminotransferase, aspartate aminotransferase and lipase: associated with increases

Cc1c(-c2c(F)cc(C(N)=O)c3[nH]c4c(c23)CC[C@H](C(C)(C)O)C4)cccc1-n1c(=O)c2cccc(F)c2n(C)c1=O [BMS‐986142]
alanine aminotransferase, aspartate aminotransferase and lipase: associated with increases

C[C@H]1CN(C2COC2)CCN1c1ccc(Nc2cc(-c3ccnc(N4CCn5c(cc6c5CC(C)(C)C6)C4=O)c3CO)cn(C)c2=O)nc1 [fenebrutinib]
bleeding events (healthy volunteers): no reported bleeding events
tolerability (healthy volunteers): well tolerated
primary efficacy endpoint [1]: failed to meet its primary efficacy endpoint
